According to patent US8114406B2, “Peptides and their utility in modulation of behavior of cells expressing α3β1 integrins” (The United States of America as represented by the …, priority 1999, dated 2012):
Where two headings read alike, the source gives them in different places. Where no end group is shown, it is not given here.

How the values were obtained:
[1] = system: MDA-MB-435 breast carcinoma cells; assay: Inhibition of MDA-MB-435 cell adhesion to immobilized peptide 678 (microscopic adhesion assay); type: cell-based, human
Experimental: (§1) Adhesion assays of cells other than small cell lung carcinoma (SCLC)-Adhesion was measured on polystyrene or glass substrates coated with peptides or proteins as previously described (Guo et al., 1992). Peptides dissolved in PBS at 0.4 to 50 μM were incubated in polystyrene microliter plate wells overnight at 4° C. The wells were washed 3 times with distilled water. Adsorbed peptide was quantified using the BCA assay (Pierce Chemical) measuring absorbance at 570 and 630 nm as described by the supplier's protocol. The assay for adsorption was calibrated using purified peptide in solution as a standard. After blocking with 1% BSA in Dulbecco's PBS, adhesion assays were performed by adding cells suspended in DMEM (BAE cells) or medium 199 (human cells) containing 1 mg/ml BSA. Cell attachment and spreading was quantified microscopically.

[2] = system: MDA-MB-435 breast carcinoma cells
Experimental: MDA-MB-435 cell adhesion to microliter plate wells coated with 5 uM peptide 678 was determined in the presence of the indicated concentrations of soluble carboxamidomethyl-peptide 716 or peptide 716 covalently linked to FICOLL™ as previously described (Guo et al., 1997). After washing twice to remove unattached cells, adherent cells were quantified by detection of cellular hexosaminidase using p-nitrophenyl-N-acetylglucosaminide as substrate. Released p-nitrophenol was detected by absorbance at 405 nm. Results are mean+/−SD, n=3.
In this case, the adherent cells are quantified by detection of cellular hexosaminidase using p-nitrophenyl-N-acetylglucosaminidine as substrate. Released p-nitrophenol is detected by absorbance at 405 nm.

BAE cells [3] = system: BAE cells
Experimental: Direct adhesion of BAE cells to the adsorbed peptides or uncoated substrate (control) are presented as mean±SD, n=3. […] Two flasks of BAE cells were grown to confluence. One flask was harvested and replated in fresh medium at 25% confluency. Fresh medium was added at the same time to the second flask. After 16 h, cells from both flasks were dissociated using EDTA and adhesion was measured on substrates coated with 40 μg/ml TSP1, 10 μg/ml vitronectin, 20 μg/ml plasma fibronectin, or 5 μg/ml type I collagen. The percent spread cells after 60 min is presented as mean±SD, n=3 for a representative experiment.
Results are presented as mean±SD, n=3. […] The percent spread cells was determined at 60 min.

MDA-MB-435 cells [4] = assay: MDA-MB-435 cell spreading on matrix proteins, inhibition by soluble peptide; type: cell-based, human; conditions: 10 μM peptide 678 (FIG. 4A)
Experimental: FIGS. 4A and 4B are graphs illustrating the inhibition of breast carcinoma cell spreading on matrix proteins by peptide 678. […] Cell spreading is presented as mean±SD, n=3. Panel B: Inhibition of MDA-MB-435 cell attachment to surfaces coated with 10 μM peptide 678 (●) or laminin peptide GD6 (◯) was measured in the presence of the indicated concentrations of peptide 678 added in solution.
as §1

HDME cells = assay: HDME cell proliferation; type: cell-based, human
Experimental: (§2) Briefly, 100 μl of a 5×10^4 cell/ml suspension of BAE cells were seeded in triplicate into 96 well tissue culture plate in DMEM medium containing 1% FCS, 10 ng/ml of FGF2 and peptides at 1-40 μM concentrations. Cells were incubated for 72 h, and proliferation was measured using the Celltiter tetrazolium assay (Promega). […] Proliferation was determined at 72 h, and is presented as a percent of the control, mean±S.D., n=3 for experimental points and n=6 for control. […] FIG. 19E: HDME cell proliferation in MCDB growth medium with 5% FCS was determined in the presence of 10 ng/ml FGF2 and the indicated concentrations of TSP1 added in the medium (Δ) or immobilized on the substrate (●) or in wells coated with the indicated concentrations of peptide 678 (●).
(§3) Cell proliferation was measured using the Cell-Titer colorimetric assay (Promega) as previously described (Vogel et al., 1993). A 100 μl volume of BAE cell suspension at 50,000 cells/ml in DMEM containing 1% FBS and supplemented with 10 ng/ml FGF2 was plated in triplicate in 96 well tissue culture plates either in the presence of peptides in solution or in wells that were pre-coated with 100 μl of the peptides at 40° C. overnight and aspirated just before adding cells. Cells were grown for 72 hours at 37° C. in a humidified incubator with 5% CO2. […] HDME cell proliferation was measured in MCDB growth medium without heparin, VEGF, or FGF2.

[5] = system: chick chorioallantoic membrane (CAM) angiogenesis; assay: Chick chorioallantoic membrane (CAM) angiogenesis assay; type: in vivo, chicken; conditions: for Angiogenic response (% inhibition): relative to control gels, mean ± SD
Experimental: Fertilized Leghorn chicken eggs were obtained from Ramona Duck farm (Westminster, Calif.). At day 3 of development, the embryos were placed on 100 mm petri dishes. Assays were performed as previously described (Iruela-Arispe et al., 1999). […] Peptides were filtered on Centricon P100 prior to their analysis on the CAM assays to eliminate traces of endotoxin. Pellets were applied to the outer ⅓ of the CAM, and the assay was performed for 24 h. Detection of capillary growth was done by injection of FITC-dextran in the bloodstream and observation of the pellets under a fluorescent inverted microscope. Positive controls (growth factors and vehicle), as well as negative controls (vehicle alone) were placed in the same CAM and used as reference of 100% stimulation or baseline inhibition (0%), and response to the peptides was determined according to these internal controls. Assays were performed in duplicate in each CAM and in four independent CAMs (total of 8 pellets).

MDA-MB-435 cells [6] = assay: MDA-MB-435 cell chemotaxis in modified Boyden chambers; type: cell-based, human; conditions: peptide in lower well; 7 h
Experimental: FIGS. 10A and 10B display the measurement of MDA-MB-435 cell chemotaxis. Panel A: Dose-dependence for stimulation of MDA-MB-435 cell motility by peptide 678 added to the lower well of a modified Boyden chamber. Cells migrated to the lower surface of an 8 μm pore polycarbonate filter were quantified microscopically after 7 h, mean±SD, n=3 for a representative experiment. […] Chemotaxis of untreated cells (striped bars) or cells treated with 10 nM IGF1 in the upper chamber (solid bars) was determined after 7 h and is presented as mean±S.D., n=3.

HUVEC = HUVEC spreading on coated substrates; type: cell-based, human; conditions: for percent spread HUVEC on immobilized substrate: data not shown
Experimental: FIGS. 14A, 14B and 14C display α3β1 and αvβ3 integrin-mediated spreading of endothelial cells on thrombospondin-1. […] Results are expressed as percent of the response for untreated cells, mean±S.D., n=3.
as §1

BAE cells [7] = assay: Scratch wound repair of BAE cells; type: cell-based, bovine; conditions: cells arrested using 5-fluorouracil; 24 h
Experimental: BAE cells were seeded at a density of 2×10^5 cells/well of 6 well tissue culture plates in complete growth medium supplemented with 10% FBS. After the cells formed a confluent cobblestone, cells were arrested using 10 μg/ml 5-fluorouracil for 48 h. Scrape wounds of 2 mm, width were made in the wells, and the cells were further incubated with medium containing 10% FBS, 10 μg/ml 5 fluorouracil and peptides 678, 709, or 690. Measurements of the distance between the wound margins were taken at 0 and 24 h, and the net migration is expressed as mean±SEM for triplicates.
The in vitro wound healing assay used was a slight modification of that described by Joyce et al. (Joyce et al., 1989). A confluent monolayer of BAE cells pretreated with 10 μg/ml 5-fluorouracil for […] were used in this assay. […] Mitosis of the BAE cells in the monolayers was inhibited by addition of 5-fluorouracil, so that the rate of wound closure was due solely to the migration of cells into the wound sites. The distances between the wound margins were measured as soon as the wound was made and 24 hours later using a grid incorporated into the eye piece of the microscope. All data represent the results obtained from three independent scratch wounds for each peptide tested.

BAE cells [8] = conditions: added in solution
Experimental: as §2, §3

OH1 SCLC cells = type: cell-based, human; conditions: 72 h
Experimental: Net, proliferation was determined by the CellTiter assay (Promega) and is presented as mean±SD, n=3. […] The cells were fixed and photographed using Nomarski optics. Bar=100 μm. […] Panel E: α3β1 Integrin ligands cooperate with EGF to inhibit OH1 cell proliferation. […] Net proliferation is presented as a percent of the -EGF control (mean±SD, n=3 for treated groups and n=6 for control groups).
Proteins and peptides were immobilized on Nunc Maxisorp 96 well plates by overnight incubation with the proteins or peptides dissolved in 50 μl of sterile Dulbecco's PBS. The supernatant fluid was removed, and the wells were incubated for 30 min. in DPBS containing 1% BSA. OH1 cells (1×10^4/well) were added in RPMI containing 15% FCS and incubated for 72 h at 37° in 5% CO2. For assessing inhibition by soluble proteins or peptides, OH1 cells were grown in suspension in Nunclon 96 well tissue culture plates using the same medium.

FQGVLQNVRFVF [Peptide 678]
IC50 ([1]; Table 3, 5 μM peptide 678, read-out: IC50 (μM), inhibition of MDA-MB-435 cell adhesion to immobilized peptide 678): 3.5 µM | IC50 ([1]; microscopic adhesion assay, polystyrene coated with 5 μM peptide 678, peptides in solution, read-out: Inhibition of peptide 678 (IC50)): 3.5 µM | IC50 [2]: 15 µM | inhibition of BAE cell spreading on fibronectin or vitronectin substrates (BAE cells [3]): did not inhibit | inhibition of BAE spreading on fibronectin (BAE cells [3]; 30 μM (FIG. 12)): did not inhibit | inhibition of density-dependent BAE spreading on intact TSP1 and the TSP1 peptide (BAE cells [3]; peptide added in solution): inhibited | endothelial cell attachment on immobilized peptide (BAE cells [3]; peptides adsorbed at 10 μM (FIG. 11A)): attached specifically | inhibition of MDA-MB-435 spreading on TSP1 and murine laminin-1/entactin (MDA-MB-435 cells [4]): strongly inhibited | inhibition of MDA-MB-435 spreading on fibronectin or type IV collagen (MDA-MB-435 cells [4]): did not inhibit | HDME cell proliferation after plating on immobilized substance (HDME cells): enhancement | Angiogenic response (% inhibition) ([5]; 5 μM peptide): 2 ± 5% | Angiogenic response (% inhibition) ([5]; 10 μM peptide): 17 ± 7% | Angiogenic response (% inhibition) ([5]; 20 μM peptide): 37 ± 9% | angiogenesis stimulated by FGF2 ([5]; 20 micromolar): 68±5 % of control | angiogenesis stimulated by VEGF ([5]; 20 micromolar): 73±7 % of control | angiogenesis stimulated by a mixture of both growth factors ([5]; 20 micromolar): 59±5 % of control | concentration of maximal chemotactic response (MDA-MB-435 cells [6]): 10 µM | inhibition of HUVEC spreading on vitronectin (HUVEC): not significantly inhibited | inhibition of HUVEC spreading on TSP1 (HUVEC; 20 μM peptide 678 (FIG. 14B)): 70±7% | percent spread HUVEC on immobilized substrate (HUVEC; confluent cells): 3±1% | percent spread HUVEC on immobilized substrate (HUVEC; sparse cultures): 12±3% | inhibition of BAE cell migration into the wound (BAE cells [7]): dose-dependent inhibitor | inhibition of BAE cell proliferation (BAE cells [8]): inhibited | IC50 (OH1 SCLC cells): 6 µM
